According to patent US20070184490A1, “Neuronal nicotinic receptor ligands and their use” (priority 2006, published 2007):

Experiments:
adults with ADHD [1] = test: pilot crossover study in adults with ADHD: CAARS, CGI-ADHD-S, HAM-A, HAM-D; assay type: in vivo, human
Source text: In addition to the primary outcome, the Conner's Adult ADHD Rating Scale (CAARS), secondary rating scales, neuropsychological, and safety assessments were completed. Results: A total of 11 adults with well-characterized ADHD completed this crossover study. […] On the clinical efficacy endpoints, CAARS Total Symptom Score and CAARS Hyperactive/Impulsive score, a shallow inverted V-shaped dose-response curve was observed. However, the dose-response curve for attention and memory effects as measured by computerized cognitive testing seemed dose-linear. No clinically meaningful findings in safety assessments or side effect profile were observed.
Subjects between 18 and 60 years old who met the DSM-IV-TR criteria for ADHD as assessed by clinical interview and confirmed by the Washington University in St. Louis Kiddie Schedule for Affective Disorders and Schizophrenia (WASH-U-KSADS) diagnostic criteria for ADHD (Orvaschel 1985) (Geller et al 1998) were eligible for inclusion in the study. Furthermore, a score of ≧2 on at least six of nine items in at least one of the subscales of the Conner's Adult ADHD Rating Scale (CAARS) (Conners et al 1999) at screening and Day 1 and a score of ≧4 (i.e., at least moderate severity) on the Clinical Global Impressions-ADHD Severity (CGI-ADHD-S) test (Guy 1976) at screening were required. Exclusion criteria consisted of: smoker or user of nicotine product(s) in the three months prior to enrollment; clinically significant chronic medical conditions; current diagnosis or history of schizoaffective or bipolar disorder, obsessive-compulsive disorder, schizophrenia, or other psychotic disorder; current depression requiring treatment; serious homicidal or suicidal ideation; abnormal baseline laboratory values; drug or alcohol abuse/dependence within the last three months; current use of psychotropics or stimulants; and pregnant or lactating women. The following institutional review boards at Quorum IRB in Seattle, Wash., The Human Research Committee at the Lawrence House in Boston, Mass., the Institutional Board of Research Associates at the NYU School of Medicine in New York, N.Y., the New York Campus, Va. NY Harbor Healthcare Systems Subcommittee for human subjects, research and development subcommittee, and research safety subcommittee in New York, N.Y., the University of Vermont Committee on Human Research in Burlington, Vt., the Scientific Advisory Committee of Burlington, Vt., and the University of Chicago Hospitals IRB in Chicago, Ill. approved the study protocol, and all subjects provided written, informed consent.
Following an initial two-week medication washout and screening period, subjects entered an eight-week double-blind treatment period. […] A study design schematic is provided below in Table 1.
Raters for the CAARS were trained and certified prior to the start of the study. Investigator-administered CAARS, CGI-ADHD-S, Hamilton Anxiety Scale (HAM-A) (Hamilton 1959), and Hamilton Depression Scale (HAM-D) (Hamilton 1960) were administered to subjects at baseline and at the completion of each treatment period (Days 14, 28, 42, and 56). CMRS, HAM-A, and HAM-D ratings were based on the previous seven days. After being trained, subjects completed a computerized cognitive assessment battery (Simpson et al 1989), which was amended to include the Conner's Continuous Performance Test (Conners 1995) and the Stroop Color Word Test (Jensen and Rohwer 1966), at baseline and at the completion of each treatment period. Attentional tasks (simple and choice reaction time, digit vigilance), selective attention (Conner's CPT), working memory tasks (numeric and spatial working memory, rapid visual information processing), episodic secondary memory (immediate and delayed word recall, word and picture recognition), motor control tasks (tracking), and executive function (the Stroop effect) were among the items assessed. […]

adults with ADHD [2] = test: pilot study: computerized cognitive assessment battery; assay type: in vivo, human
Description: Raters for the CAARS were trained and certified prior to the start of the study. Investigator-administered CAARS, CGI-ADHD-S, Hamilton Anxiety Scale (HAM-A) (Hamilton 1959), and Hamilton Depression Scale (HAM-D) (Hamilton 1960) were administered to subjects at baseline and at the completion of each treatment period (Days 14, 28, 42, and 56). CMRS, HAM-A, and HAM-D ratings were based on the previous seven days. After being trained, subjects completed a computerized cognitive assessment battery (Simpson et al 1989), which was amended to include the Conner's Continuous Performance Test (Conners 1995) and the Stroop Color Word Test (Jensen and Rohwer 1966), at baseline and at the completion of each treatment period. Attentional tasks (simple and choice reaction time, digit vigilance), selective attention (Conner's CPT), working memory tasks (numeric and spatial working memory, rapid visual information processing), episodic secondary memory (immediate and delayed word recall, word and picture recognition), motor control tasks (tracking), and executive function (the Stroop effect) were among the items assessed.
The primary efficacy endpoint was the CAARS total ADHD symptom score (sum of Inattention and Hyperactivity/Impulsivity scores) obtained on the last day of each treatment period. Treatment differences were assessed using an analysis of variance (ANOV A) model with fixed terms fitted for treatment, period, and sequence and a random effect for subjects-within-sequence. […] There were no corrections for multiple comparisons in this proof-of-concept study. Statistical tests of efficacy were one-sided; p-values ≦0.050 were considered statistically significant, and those between […] indicated a statistical trend.

In the case of Cc1ncccc1OC[C@@H]1CCCN1 [ABT-089, 2-methyl-3-(2-(S)-pyrrolidinylmethoxy)pyridine], the “Hyperactive/impulsive score improvement vs. placebo” value (adults with ADHD [1]; 2 mg and 4 mg doses) is reported as roughly 20%, the “Inattentive score improvement versus placebo” value (adults with ADHD [1]; 2 mg and 20 mg doses) is reported as “approximately 11%” and the “CAARS Hyperactive/Impulsive subscale, least square mean (±SE)” value (adults with ADHD [1]; 2 mg bid) is reported as 13.8 (0.9). For the same compound, the “CAARS Inattentive subscale, least square mean (±SE)” value (shortened to “CAARS Inattentive subscale … (±SE)”) (adults with ADHD [1]; 2 mg bid) was 18.3 (1.2), the CGI-ADHD-S mean score (adults with ADHD [1]; 2 mg dose) was 3.92 (0.20) and the “effect size, CAARS total symptom score vs placebo” value (from here on “effect size … vs placebo”) (adults with ADHD [1]; 2 mg twice daily) was 0.92. The “CAARS Hyperactive/Impulsive subscale, least square mean (±SE)” value (adults with ADHD [1]; 4 mg bid) was 14.5 (0.9), the “CAARS Inattentive subscale … (±SE)” value (adults with ADHD [1]; 4 mg bid) was 18.7 (1.2) and the CGI-ADHD-S mean score (adults with ADHD [1]; 4 mg dose) was 4.09 (0.20). For the same compound, the “effect size … vs placebo” value (adults with ADHD [1]; 4 mg twice daily) was 0.76, the “CAARS Hyperactive/Impulsive subscale, least square mean (±SE)” value (adults with ADHD [1]; 20 mg bid) was 15.4 (0.9) and the “CAARS Inattentive subscale … (±SE)” value (adults with ADHD [1]; 20 mg bid) was 18.1 (1.2). The CGI-ADHD-S mean score (adults with ADHD [1]; 20 mg dose) was 4.12 (0.20), the “effect size … vs placebo” value (adults with ADHD [1]; 20 mg twice daily) was 0.71 and the “effect on HAM-A or HAM-D scores” value (adults with ADHD [1]; in vivo) was “no effect”. The “Continuous Performance Test Attentiveness” value (adults with ADHD [2]; 2 mg) was 0.56±0.27, the “Continuous Performance Test Attentiveness” value (adults with ADHD [2]; 4 mg) was 0.68±0.27 and the “Continuous Performance Test Attentiveness” value (adults with ADHD [2]; 20 mg) was 0.69±0.27. For the same compound, the information processing speed (adults with ADHD [2]; 20 mg) was 516.3±12.7, the “Continuous Performance Test number of commission errors” value (adults with ADHD [2]; all ABT-089 dose levels) was “statistically significant improvement” and the “measures of attention (reaction time, vigilance), episodic secondary memory, executive function (Stroop Effect) vs placebo” value (adults with ADHD [2]; in vivo) was “no meaningful differences”.
